We go through 15 compounds from ChEMBL document CHEMBL3758128, “Studies on Aryl-Substituted Phenylalanines: Synthesis, Activity, and Different Binding Modes at AMPA Receptors” (J Med Chem, 2016).

Test [1] deals with T1, Glutamate receptor 2 (Rattus norvegicus, UniProt P19491). The test is described as follows: Displacement of [3H]AMPA from full length rat cloned GluA2(R)o receptor expressed in sf9 cells incubated for 1 to 2 hrs by liquid scintillation counting method.
Test [2] has as its target Glutamate receptor ionotropic, kainate 1 (Rattus norvegicus, UniProt P22756). The test is described as follows: biochemical.
Description: Displacement of [3H]SYM2081 from recombinant rat GluK1(Q)1b receptor expressed in sf9 cells incubated for 1 to 2 hrs by liquid scintillation counting method
The next test has as its target Glutamate receptor 1 (Rattus norvegicus, UniProt P19490). The test is described as follows: biochemical.
A further test concerns the target Glutamate receptor 3 (Rattus norvegicus, UniProt P19492). The experiment in a line: biochemical.
The target of test [3] is Glutamate receptor ionotropic, kainate 2 (Rattus norvegicus, UniProt P42260). The experiment in a line: biochemical.
Sequence of Glutamate receptor ionotropic, kainate 2 (P42260 whole entry): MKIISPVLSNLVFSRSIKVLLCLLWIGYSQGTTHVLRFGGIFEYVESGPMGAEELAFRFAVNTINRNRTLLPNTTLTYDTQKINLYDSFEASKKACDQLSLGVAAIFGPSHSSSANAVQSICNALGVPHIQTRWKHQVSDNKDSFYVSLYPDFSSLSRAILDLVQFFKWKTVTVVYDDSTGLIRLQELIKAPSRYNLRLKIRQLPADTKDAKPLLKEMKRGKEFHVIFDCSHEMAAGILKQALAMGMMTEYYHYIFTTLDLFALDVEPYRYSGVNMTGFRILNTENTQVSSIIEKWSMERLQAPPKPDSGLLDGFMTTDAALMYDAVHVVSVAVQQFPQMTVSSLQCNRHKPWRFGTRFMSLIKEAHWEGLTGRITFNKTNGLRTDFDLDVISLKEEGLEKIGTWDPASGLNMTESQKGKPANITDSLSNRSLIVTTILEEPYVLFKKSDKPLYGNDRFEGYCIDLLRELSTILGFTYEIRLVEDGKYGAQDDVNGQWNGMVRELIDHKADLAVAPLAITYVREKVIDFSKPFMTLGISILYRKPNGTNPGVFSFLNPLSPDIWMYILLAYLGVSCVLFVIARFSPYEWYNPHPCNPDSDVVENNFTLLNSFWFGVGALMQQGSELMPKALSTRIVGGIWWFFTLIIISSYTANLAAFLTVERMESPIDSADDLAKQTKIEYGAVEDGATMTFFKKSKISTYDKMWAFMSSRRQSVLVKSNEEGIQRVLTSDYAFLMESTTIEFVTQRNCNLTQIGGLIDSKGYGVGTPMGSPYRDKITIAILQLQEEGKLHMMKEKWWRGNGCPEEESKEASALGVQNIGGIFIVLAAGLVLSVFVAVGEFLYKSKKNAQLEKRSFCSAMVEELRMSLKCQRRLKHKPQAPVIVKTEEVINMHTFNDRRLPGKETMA
Description: Displacement of [3H]SYM2081 from cloned rat GluK2(V,C,R)A receptor expressed in sf9 cells incubated for 1 to 2 hrs by liquid scintillation counting method
Test [4] deals with Glutamate receptor ionotropic, kainate 3 (Rattus norvegicus, UniProt P42264). The experiment in a line: biochemical.
Description: Displacement of [3H]SYM2081 from cloned rat GluK3A receptor expressed in sf9 cells incubated for 1 to 2 hrs by liquid scintillation counting method
Test [5] addresses T2, Glutamate receptor 2 (Homo sapiens, UniProt P42262). The experiment in a line: Agonist activity at human GluA2(Q)i expressed in HEK293 cells assessed as enhancement of glutamate-evoked desensitized current by whole cell patch clamp method. Type of test: cell-based.
The target in test [6] is T1, Glutamate receptor 2. The test is described as follows: Antagonist activity against recombinant rat GluA2(Q)i expressed in xenopus oocytes assessed as inhibition of L-glutamate-induced […] by two electrode voltage clamp method. Type of test: cell-based.
Test [7] addresses T2, Glutamate receptor 2. The experiment in a line: Displacement of [3H]AMPA from GluA2 LBD (unknown origin) incubated for 2 hrs by liquid scintillation counting method.

Sequence of Glutamate receptor ionotropic, kainate 1 (P22756 whole entry): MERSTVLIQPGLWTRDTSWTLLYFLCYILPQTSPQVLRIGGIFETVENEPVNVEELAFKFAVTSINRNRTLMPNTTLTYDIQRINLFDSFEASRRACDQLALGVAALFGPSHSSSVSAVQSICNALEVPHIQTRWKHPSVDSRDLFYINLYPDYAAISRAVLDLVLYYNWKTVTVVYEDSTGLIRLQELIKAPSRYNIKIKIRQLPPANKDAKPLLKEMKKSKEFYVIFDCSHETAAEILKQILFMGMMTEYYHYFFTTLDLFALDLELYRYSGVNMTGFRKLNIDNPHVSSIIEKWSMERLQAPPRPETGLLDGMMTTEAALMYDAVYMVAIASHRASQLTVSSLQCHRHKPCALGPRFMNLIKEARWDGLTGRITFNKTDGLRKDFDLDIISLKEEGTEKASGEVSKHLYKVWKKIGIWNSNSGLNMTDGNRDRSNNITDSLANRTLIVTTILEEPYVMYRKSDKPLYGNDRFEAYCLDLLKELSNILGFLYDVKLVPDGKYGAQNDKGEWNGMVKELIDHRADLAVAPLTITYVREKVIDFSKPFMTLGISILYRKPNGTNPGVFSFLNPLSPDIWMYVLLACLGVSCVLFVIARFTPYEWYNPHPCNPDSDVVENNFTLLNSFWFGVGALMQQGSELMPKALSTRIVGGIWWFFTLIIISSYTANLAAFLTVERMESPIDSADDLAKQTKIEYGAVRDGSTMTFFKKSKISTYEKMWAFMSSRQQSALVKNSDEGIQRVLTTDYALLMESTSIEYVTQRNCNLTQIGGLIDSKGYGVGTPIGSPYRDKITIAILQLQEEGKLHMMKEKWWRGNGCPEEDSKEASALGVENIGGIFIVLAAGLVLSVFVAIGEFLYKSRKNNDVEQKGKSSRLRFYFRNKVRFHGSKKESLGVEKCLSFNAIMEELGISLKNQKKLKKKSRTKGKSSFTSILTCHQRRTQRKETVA
Sequence of Glutamate receptor 3 (P19492 whole entry): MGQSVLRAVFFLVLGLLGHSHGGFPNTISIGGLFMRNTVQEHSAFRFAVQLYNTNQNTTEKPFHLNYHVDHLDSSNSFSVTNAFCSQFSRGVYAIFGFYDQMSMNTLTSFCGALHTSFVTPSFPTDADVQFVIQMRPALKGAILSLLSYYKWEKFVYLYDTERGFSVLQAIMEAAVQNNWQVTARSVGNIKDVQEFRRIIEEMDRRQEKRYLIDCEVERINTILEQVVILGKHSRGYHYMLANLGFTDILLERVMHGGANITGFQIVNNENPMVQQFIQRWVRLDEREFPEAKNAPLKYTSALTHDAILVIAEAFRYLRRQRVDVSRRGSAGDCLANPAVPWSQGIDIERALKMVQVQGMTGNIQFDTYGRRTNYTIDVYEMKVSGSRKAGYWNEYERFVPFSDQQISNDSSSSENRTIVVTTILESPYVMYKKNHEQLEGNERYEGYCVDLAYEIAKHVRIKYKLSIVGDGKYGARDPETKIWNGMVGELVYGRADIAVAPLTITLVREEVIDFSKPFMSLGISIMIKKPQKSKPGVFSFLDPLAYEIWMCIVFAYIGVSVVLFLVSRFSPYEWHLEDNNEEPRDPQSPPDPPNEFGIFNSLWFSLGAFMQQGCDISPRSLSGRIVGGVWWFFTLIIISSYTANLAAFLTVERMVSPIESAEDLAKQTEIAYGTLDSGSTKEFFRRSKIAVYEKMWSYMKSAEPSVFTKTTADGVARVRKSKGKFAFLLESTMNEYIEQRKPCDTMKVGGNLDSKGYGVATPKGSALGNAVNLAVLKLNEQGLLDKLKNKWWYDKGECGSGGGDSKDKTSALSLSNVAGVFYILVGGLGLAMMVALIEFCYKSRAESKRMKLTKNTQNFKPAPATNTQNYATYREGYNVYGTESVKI
T1 sequence (P19491 whole entry): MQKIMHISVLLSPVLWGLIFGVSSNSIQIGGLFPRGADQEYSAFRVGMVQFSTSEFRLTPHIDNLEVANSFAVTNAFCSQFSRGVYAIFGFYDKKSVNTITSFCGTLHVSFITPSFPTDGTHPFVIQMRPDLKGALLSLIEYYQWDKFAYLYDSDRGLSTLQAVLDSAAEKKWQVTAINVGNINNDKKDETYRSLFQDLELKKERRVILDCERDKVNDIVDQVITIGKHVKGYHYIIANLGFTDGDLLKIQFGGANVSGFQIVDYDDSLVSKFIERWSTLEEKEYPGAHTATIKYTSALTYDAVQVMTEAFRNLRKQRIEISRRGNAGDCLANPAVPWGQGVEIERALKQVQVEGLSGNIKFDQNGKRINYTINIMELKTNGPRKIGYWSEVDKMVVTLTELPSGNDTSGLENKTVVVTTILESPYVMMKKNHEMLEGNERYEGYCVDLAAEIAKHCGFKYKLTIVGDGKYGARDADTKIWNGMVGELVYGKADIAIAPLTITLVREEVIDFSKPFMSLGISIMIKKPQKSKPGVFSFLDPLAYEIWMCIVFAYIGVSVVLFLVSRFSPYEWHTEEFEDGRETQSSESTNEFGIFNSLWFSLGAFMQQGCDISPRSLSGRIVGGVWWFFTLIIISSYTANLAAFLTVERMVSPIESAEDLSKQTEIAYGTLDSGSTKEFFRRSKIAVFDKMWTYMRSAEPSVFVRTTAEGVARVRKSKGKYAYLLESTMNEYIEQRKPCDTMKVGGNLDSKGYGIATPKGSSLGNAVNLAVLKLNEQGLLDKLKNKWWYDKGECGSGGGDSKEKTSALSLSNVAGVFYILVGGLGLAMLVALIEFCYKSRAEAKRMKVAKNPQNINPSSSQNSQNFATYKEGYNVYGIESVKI
Sequence of Glutamate receptor 1 (P19490 whole entry): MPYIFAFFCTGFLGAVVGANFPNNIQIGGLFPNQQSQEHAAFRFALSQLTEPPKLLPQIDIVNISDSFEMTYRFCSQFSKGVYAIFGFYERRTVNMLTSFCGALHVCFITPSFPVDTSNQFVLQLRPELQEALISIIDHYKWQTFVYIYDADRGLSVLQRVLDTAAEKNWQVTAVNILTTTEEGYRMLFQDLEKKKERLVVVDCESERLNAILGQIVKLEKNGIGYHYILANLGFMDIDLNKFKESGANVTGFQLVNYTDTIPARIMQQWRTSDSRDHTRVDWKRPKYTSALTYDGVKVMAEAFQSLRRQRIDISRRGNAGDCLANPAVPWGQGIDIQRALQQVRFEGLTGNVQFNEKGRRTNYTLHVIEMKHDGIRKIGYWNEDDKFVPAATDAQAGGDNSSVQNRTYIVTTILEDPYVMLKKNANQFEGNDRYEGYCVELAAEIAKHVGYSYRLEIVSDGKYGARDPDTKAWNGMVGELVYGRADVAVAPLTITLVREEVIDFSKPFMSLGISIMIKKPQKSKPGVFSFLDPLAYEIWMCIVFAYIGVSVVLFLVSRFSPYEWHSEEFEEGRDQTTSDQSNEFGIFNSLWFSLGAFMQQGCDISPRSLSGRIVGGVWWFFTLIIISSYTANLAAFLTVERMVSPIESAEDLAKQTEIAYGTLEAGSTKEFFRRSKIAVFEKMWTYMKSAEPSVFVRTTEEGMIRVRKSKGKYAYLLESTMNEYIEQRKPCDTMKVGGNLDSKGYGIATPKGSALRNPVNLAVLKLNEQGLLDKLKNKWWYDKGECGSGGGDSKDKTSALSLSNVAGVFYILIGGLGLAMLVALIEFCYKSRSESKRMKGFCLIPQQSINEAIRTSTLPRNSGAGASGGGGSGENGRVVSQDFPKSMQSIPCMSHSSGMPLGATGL
T2 sequence (P42262 whole entry): as the sequence (P19491 whole entry) above, with T191M, A291T, G764R, P852A counted along it
Description for Glutamate NMDA receptor: Displacement of [3H]CGP39653 from NMDA receptor in rat brain homogenate after 60 mins by Packard TopCount microplate scintillation counting method
Description for Glutamate receptor 1: Displacement of [3H]AMPA from rat cloned GluA1o receptor expressed in sf9 cells incubated for 1 to 2 hrs by liquid scintillation counting method
Description for Glutamate receptor 3: Displacement of [3H]AMPA from rat cloned GluA3o receptor expressed in sf9 cells incubated for 1 to 2 hrs by liquid scintillation counting method

Regarding `N[C@H](Cc1cc(Cl)c(Cl)c(-c2cncc(O)c2)c1)C(=O)O`, the Ki was over 100 µM on Glutamate receptor 2 [1]; over 50 µM at Glutamate NMDA receptor; over 100 µM in test [2]; over 100 µM on Glutamate receptor 1; over 100 µM at Glutamate receptor 3; over 100 µM in [3]. The same compound gave a Ki in test [4] of over 100 µM.

With `NC(Cc1cc(Cl)c(Cl)c(-c2ccc(CO)cc2)c1)C(=O)O` (racemic), the Ki (at Glutamate NMDA receptor; in test [2]) was over 50 µM in each case.

Take `NC(Cc1cc(Cl)c(Cl)c(-c2cncc(O)c2)c1)C(=O)O` (racemic): the Ki (at Glutamate NMDA receptor; in [2]) was over 50 µM throughout.

Consider `NC(Cc1cc(Cl)c(Cl)c(-c2cccc(CO)c2)c1)C(=O)O` (racemic), for which the Ki (on Glutamate NMDA receptor; in [2]) was over 50 µM in each case.

Take `NS(=O)(=O)c1cc2c(cc1Cl)NC(C1CC3C=CC1C3)NS2(=O)=O` (stereo not given) [CYCLOTHIAZIDE]: at Glutamate receptor 2 [5], the EC50 is 7.6 µM.

As to `NC(Cc1cc(Cl)c(Cl)c(-c2ccc(O)nc2)c1)C(=O)O` (racemic), the Ki (at Glutamate NMDA receptor; in [2]) was over 50 µM throughout.

Take `COc1cccc(-c2cc(CC(N)C(=O)O)cc(Cl)c2Cl)c1` (racemic): the Ki (on Glutamate NMDA receptor; in test [2]) was over 50 µM in each case.

For `N[C@@H](Cc1cc(Cl)c(Cl)c(-c2cncc(O)c2)c1)C(=O)O`, the Ki was 1.74 µM on Glutamate receptor 2 [1]; 2.26 µM at Glutamate receptor 2 [7]; over 50 µM at Glutamate NMDA receptor; over 100 µM in test [2]; 6.65 µM at Glutamate receptor 1; 6.88 µM at Glutamate receptor 3. The Ki in [3] and in test [4] was over 100 µM in each case. Also, on Glutamate receptor 2 [6], the IC50 turned out to be 3.7 µM.

With `NC(Cc1cc(Cl)c(Cl)c(-c2ccc3c(c2)OCCO3)c1)C(=O)O` (racemic), the Ki (on Glutamate NMDA receptor; in test [2]) was over 50 µM throughout.

Consider `NC(Cc1cc(Cl)c(Cl)c(-c2cc(O)cc(O)c2)c1)C(=O)O` (racemic), for which the inhibition constant Ki (at Glutamate NMDA receptor; in test [2]) was over 50 µM each time.

As to `NC(Cc1cc(Cl)c(Cl)c(-c2cccc(O)c2)c1)C(=O)O` (racemic), the Ki came out at 5.03 µM on Glutamate receptor 2 [1]; 92.3 µM in test [2]; 17.1 µM on Glutamate receptor 1; 55.1 µM on Glutamate receptor 3; 78.1 µM in test [3]; 52.3 µM in [4].

Regarding `NC(Cc1cc(Cl)c(Cl)c(-c2ccc(S(N)(=O)=O)cc2)c1)C(=O)O` (racemic), the Ki (on Glutamate NMDA receptor; in test [2]) was over 50 µM throughout.

Regarding `Nc1cccc(-c2cc(CC(N)C(=O)O)cc(Cl)c2Cl)c1` (racemic), the Ki (at Glutamate NMDA receptor; in test [2]) was over 50 µM each time.

In the case of `NC(Cc1cc(Cl)c(Cl)c(-c2cccc(S(N)(=O)=O)c2)c1)C(=O)O` (racemic), the Ki (on Glutamate NMDA receptor; in test [2]) was over 50 µM each time.

Turning to `NC(Cc1cc(Cl)c(Cl)c(-c2ccc(O)c(O)c2)c1)C(=O)O` (stereo not given), the Ki (at Glutamate NMDA receptor; in test [2]) was over 50 µM each time.
